Results on 13 compounds are retold here after PubChem BioAssay (NCI).

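Five concentrations, 48 hours, 96-well plates. Definition used: TGI = concentration required for complete inhibition of growth.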

Test systems include ACHN renal; HCT-15 colon; HOP-62 NSCLC; HT29 colon; IGROV1 ovarian; NCI-H226 lung; NCI-H23 lung; SF-268 CNS; SW-620 colon; UACC-62 melanoma.
Common to all, as to test: NCI-60 cell line screen, 48 h

Take `NC1C/C(=N\O)c2c(I)sc(I)c21` (stereo not given): the TGI was determined as 33.5 µM with ACHN renal; 30.6 µM in the assay on HCT-15 colon; 34.4 µM with HOP-62 NSCLC; 48.8 µM with HT29 colon; 30.8 µM with IGROV1 ovarian; 34.1 µM in the assay on NCI-H226 lung. In addition, the TGI came out at 30.2 µM in the assay with NCI-H23 lung, 35.3 µM in the assay on SF-268 CNS, 29.4 µM with SW-620 colon and 37.1 µM in the assay on UACC-62 melanoma.
Turning to `COc1ccc(/C=C2\CSC/C(=C\c3ccc(OC)c(OC)c3OC)C2=O)c(OC)c1OC`, the TGI with ACHN renal is 52.9 µM; in the assay on HCT-15 colon it was 74.1 µM; in the assay on HOP-62 NSCLC, greater than 100 µM; with HT29 colon, greater than 100 µM; in the assay with IGROV1 ovarian, greater than 100 µM; in the assay with NCI-H226 lung, greater than 100 µM. The TGI in the assay with NCI-H23 lung was greater than 100 µM; in the assay on SF-268 CNS, greater than 100 µM; in the assay on SW-620 colon it was 58.6 µM; in the assay with UACC-62 melanoma, 30.4 µM.
As to `CC(=O)Oc1ccc2c(c1)c1c(=O)oc(N(C)C)nc1n2Cc1ccccc1`, the TGI in the assay with ACHN renal, in the assay on HCT-15 colon, with HOP-62 NSCLC, in the assay on HT29 colon, in the assay on IGROV1 ovarian and in the assay with NCI-H226 lung was greater than 100 µM in each case. Moreover, the TGI in the assay on NCI-H23 lung, in the assay on SF-268 CNS, in the assay on SW-620 colon and in the assay with UACC-62 melanoma was greater than 100 µM in each case.
Turning to `COc1cc(N=NN(C)C)c(C(C)c2c3cc(OC)c(OC)cc3cc[n+]2C)cc1OC` (stereo not given), the TGI with ACHN renal, with HCT-15 colon, in the assay on HOP-62 NSCLC, with HT29 colon, in the assay on IGROV1 ovarian and in the assay with NCI-H226 lung was greater than 100 µM throughout. For the same compound, the TGI in the assay on NCI-H23 lung is greater than 100 µM; in the assay with SF-268 CNS, greater than 100 µM; in the assay with SW-620 colon, greater than 100 µM; in the assay with UACC-62 melanoma, 59.5 µM.
Consider `C=C=C(C)[Si](C)(C)C`, for which the TGI with ACHN renal, in the assay on HCT-15 colon, in the assay with HOP-62 NSCLC, in the assay on HT29 colon, with IGROV1 ovarian and with NCI-H226 lung was greater than 100 µM throughout. The TGI in the assay on NCI-H23 lung, in the assay on SF-268 CNS, in the assay on SW-620 colon and in the assay with UACC-62 melanoma was greater than 100 µM in each case.
Turning to `NNC(=O)CNC(=O)CSc1nnc(COc2ccc(Cl)cc2)n1-c1ccccc1`, the TGI in the assay on ACHN renal, in the assay with HCT-15 colon, with HOP-62 NSCLC, in the assay on HT29 colon, with IGROV1 ovarian and in the assay with NCI-H226 lung was greater than 100 µM in each case. Besides, the TGI in the assay with NCI-H23 lung, in the assay on SF-268 CNS, with SW-620 colon and in the assay with UACC-62 melanoma was greater than 100 µM throughout.
As to `CC(=O)OCC1OC(n2c(N)c(C#N)c(-c3ccccc3)c(C#N)c2=S)C(OC(C)=O)C(OC(C)=O)C1OC(C)=O` (stereo not given), the TGI is greater than 100 µM in the assay on ACHN renal; greater than 100 µM in the assay on HCT-15 colon; 45 µM with HOP-62 NSCLC; greater than 100 µM in the assay on HT29 colon; greater than 100 µM in the assay with IGROV1 ovarian; greater than 100 µM in the assay with NCI-H226 lung. Further, the TGI in the assay with NCI-H23 lung is greater than 100 µM; with SF-268 CNS, greater than 77.5 µM; in the assay with SW-620 colon, greater than 100 µM; with UACC-62 melanoma, greater than 100 µM.
For the compound `O=P(O)(O)C(O)/C=C/c1ccccc1` (stereo not given), the TGI with ACHN renal, in the assay with HCT-15 colon, in the assay with HOP-62 NSCLC, with HT29 colon, with IGROV1 ovarian and in the assay with NCI-H226 lung was greater than 100 µM throughout. The TGI in the assay on NCI-H23 lung, with SF-268 CNS, in the assay on SW-620 colon and in the assay on UACC-62 melanoma was greater than 100 µM in each case.
For the compound `COC(=O)C(CCC1C=CCC1)N=Cc1ccccc1` (stereo not given), the TGI in the assay with ACHN renal, in the assay on HCT-15 colon, in the assay with HOP-62 NSCLC, in the assay with HT29 colon, in the assay with IGROV1 ovarian and in the assay with NCI-H226 lung was greater than 100 µM throughout. In addition, the TGI in the assay with NCI-H23 lung, in the assay on SF-268 CNS, in the assay on SW-620 colon and in the assay with UACC-62 melanoma was greater than 100 µM throughout.
Consider `O=C(CN1CCN(C(=O)OCc2ccccc2)CCN(CC(=O)N2CCCCC2)CCN(C(=O)OCc2ccccc2)CC1)N1CCCCC1`, for which the TGI is greater than 54 µM with ACHN renal; greater than 50.6 µM with HCT-15 colon; 42.2 µM with HOP-62 NSCLC; 28.6 µM in the assay on HT29 colon; 28.9 µM with IGROV1 ovarian; 36.6 µM with NCI-H226 lung. Moreover, the TGI in the assay on NCI-H23 lung is greater than 100 µM; with SF-268 CNS, 31.8 µM; in the assay with SW-620 colon it was greater than 53.5 µM; in the assay with UACC-62 melanoma, 38.8 µM.
In the case of `CC1(c2ccc(Cl)cc2)CC(c2ccc(Cl)cc2)=C(C#N)C(=C(C#N)C#N)N1` (stereo not given), the TGI in the assay with ACHN renal was 28 µM; with HCT-15 colon, 32.5 µM; in the assay with HOP-62 NSCLC it was 25.1 µM; with HT29 colon, greater than 100 µM; in the assay with IGROV1 ovarian, 28.8 µM; with NCI-H226 lung it was 75.8 µM. Moreover, the TGI in the assay on NCI-H23 lung was 34.7 µM; in the assay on SF-268 CNS it was 22.6 µM; in the assay with SW-620 colon, greater than 100 µM; in the assay on UACC-62 melanoma, 33.5 µM.
For the compound `Cc1ccc2c(c1)NC(=O)CCSSCCC(=O)N2`, the TGI in the assay with ACHN renal, with HCT-15 colon, in the assay with HOP-62 NSCLC, with HT29 colon, in the assay on IGROV1 ovarian and in the assay on NCI-H226 lung was greater than 100 µM throughout. Further, the TGI with NCI-H23 lung, in the assay with SF-268 CNS, in the assay with SW-620 colon and in the assay on UACC-62 melanoma was greater than 100 µM in each case.
`CCc1n[nH]c(=O)n1N1C(=O)C2CC=CCC2C1=O` (stereo not given): the TGI in the assay on ACHN renal, in the assay with HCT-15 colon, in the assay with HOP-62 NSCLC, with HT29 colon, in the assay on IGROV1 ovarian and in the assay with NCI-H226 lung was greater than 100 µM each time. Further, the TGI in the assay with NCI-H23 lung, in the assay with SF-268 CNS, in the assay with SW-620 colon and in the assay with UACC-62 melanoma was greater than 100 µM in each case.
